According to the METLIN SMRT retention time set (Domingo-Almenara et al. 2019):

Test: gradient 5% acetonitrile 3 min, to 50% in 2 min, to 85% in 15 min, held 3 min, 100 µL/min
Conditions: column: Zorbax Extend-C18 2.1 x 50 mm; eluents: water / acetonitrile, 0.1% formic acid
Outline: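 In both positive and negative ionization mode, a quadrupole time-of-flight mass spectrometer coupled to HPLC analyzed pure standards run in mixtures of ~100 molecules. The Zorbax Extend-C18 column (2.1 × 50 mm, 1.8 μm) was operated at 100 μL/min with water and acetonitrile, each containing 0.1% formic acid. The dead volume was 40 μL and the dwell volume 900 μL. Retention time came from adduct peaks that were computationally picked and individually inspected by hand.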

SMILES	RP-LC retention time
O=C(NCc1cccc(C(F)(F)F)c1)C1CCCN(c2cnc3nccnc3c2)C1 (centres undefined)	754 s
CC(C)NC(=O)c1ccc2c(c1)nc(CN1CCN(C(=O)NC(C)C)CC1)n2C	576 s
CCOC(=O)c1ccccc1NC(=O)Cn1cnc2nc(N3CCC(C(=O)NC)CC3)sc2c1=O	701 s
CCC(C(=O)Nc1ccc2ncnc(N3CCCC3)c2c1)c1ccccc1 (centres undefined)	703 s
CCCS(=O)(=O)c1nc2ccc(NS(=O)(=O)c3ccc4c(c3)CCC4)cc2s1	999 s
Cc1ccc(NC(=O)C2CCCN(c3ncnc4c3nc3n4CCCCC3)C2)cc1F (centres undefined)	785 s
Cc1ccc2nc(CCNC(=O)Cn3nc(C(=O)N4CCCC4)c4ccccc43)[nH]c2c1	613 s
Cn1cc(CC(=O)NCc2cccc(Cl)c2)c2cccnc21	725 s
Cc1cccc(-c2ncccc2CNS(=O)(=O)c2cccc(C)c2)c1	721 s
CCCNC(=O)Cc1c(C)n(C)c2nc(-c3ccccc3)nn2c1=O	660 s
CCC1CN2C=Nc3oc(C)c(C(=O)Nc4cccc(Cl)c4)c3C2=N1 (centres undefined)	695 s
CCc1ccccc1NC(=O)N1CC(Cc2nncn2C(C)C)C1	646 s
Cn1nc(C(=O)N2CCCCC2)c2c1CCN(C(=O)CCC(=O)NCCCN1CCCC1)C2	579 s
CCN(Cc1ccccc1)c1ccc(-c2noc(CN3CCCC(C)C3)n2)cn1 (centres undefined)	792 s
CCn1c(=O)n(CC)c2cc(N3CCCC3)c(NC(=O)NCc3cccc(OC)c3)cc21	646 s
O=C(Nc1cccc(F)c1)N1CCN(c2cc(-c3ccncc3)[nH]n2)CC1	606 s
O=C(NCc1ccccn1)C1CCN(C(=O)c2ncn3c2COC(c2ccccc2)C3)CC1 (centres undefined)	602 s
COc1cc(Cl)c(C)cc1NC(=O)CN1C(=O)NC2(CCCCC2)C1=O	884 s
Cc1ccc(C)c(-n2ncc3c(N4CCN(C)CC4)ncnc32)c1	614 s
COc1ccc(NC(=O)CSc2ccc(N3CCCC(C(=O)NC4CC4)C3)nn2)cc1 (centres undefined)	617 s
Cc1sc2ccn(C)c(=O)c2c1C(=O)N1CCCCCC1	705 s
CCOC(=O)CC1(NC(=O)N2CCN(c3nc4ccccc4n3CC)CC2)CCCCC1	703 s
O=C(NCc1ccco1)c1ccccc1-c1nc(-c2ccccc2)no1	888 s

SMILES	RP-LC retention time
COC(=O)c1cc(OC)c(OC)cc1NC(=O)c1ccc(CSc2ccccc2)o1	1070 s
Cc1ccc(NC(=O)N2CCC(N3CCN(Cc4ccc(F)cc4)C(=O)C3=O)CC2)cc1Cl	831 s
O=C(Oc1ccc2oc(=O)sc2c1)c1cccc(Cl)c1	1090 s
CCCC(=O)Nc1nc(-c2ccc3c(c2)NC(=O)C(C)O3)cs1 (centres undefined)	806 s
O=C(Nc1cnc(-c2ccc(Cl)cc2)nc1)C1CCCO1 (centres undefined)	910 s
O=C(CCc1c(-c2ccc(Br)cc2)nc2ccccn12)NCc1cccc(F)c1	677 s
CCOc1ccc(-c2noc(Cn3c(=O)n(C(C)C)c(=O)c4ccccc43)n2)cc1OC	1080 s
COc1ccc(-n2nc(N3CCCC(C(=O)NCc4cccc(OC)c4)C3)ccc2=O)cc1 (centres undefined)	763 s
CCc1noc(NC(C)=O)c1-c1ccc(OC)c(S(=O)(=O)N2CCCC2)c1	710 s
O=C(Cn1nc2nc(Nc3ccc(F)cc3)ccn2c1=O)NCc1ccc(F)cc1Cl	753 s
Cc1[nH]c(C(=O)N2CCC(CC(=O)NC3CCCC3)CC2)c(C)c1C(=O)OC(C)C	778 s
CCc1nc2cc(-c3noc(-c4cc(F)ccc4Cl)n3)ccc2o1	1270 s
Cc1cc(N2CCN(C(=O)c3ccco3)CC2)n2nc(C)c(-c3ccc(Cl)cc3)c2n1	838 s
N#Cc1ccc(-c2nc(-c3ccc(S(=O)(=O)N4CCC(C(=O)N5CCCC5)CC4)cc3)no2)cc1	947 s
O=C(CCC1CCCC1)N1CCN(c2nnc3c(Cl)cccn23)CC1	691 s
COc1ccc(-n2nnc(C(=O)O)c2C)cc1OC	628 s
Cc1[nH]c(C(=O)N2CCCC(C(=O)NCCN3CCCCC3)C2)c(C)c1C(=O)OC(C)C (centres undefined)	634 s
CCN(CC)CCNC(=O)C1CCCN(c2nc3cccnc3s2)C1 (centres undefined)	577 s
CCn1ccc(C(=O)NC2CC2)n1	619 s
CCCNC(=O)C1CCN(c2ccc(SCC(=O)Nc3cccc(C)c3C)nn2)CC1	642 s
COc1cccc(N2C(=O)c3ccccc3C2C(=O)NC2CCCC2)c1 (centres undefined)	775 s
Cc1ccc(-n2nc(C)c3c(C)cc(OCC(=O)NCc4ccc5c(c4)OCO5)nc32)cc1	1060 s
CCCn1cc(CCNC(=O)Nc2cc(F)ccc2F)c2cccnc21	849 s

SMILES	RP-LC retention time
Cc1cccc(NC(=O)N2CCN(c3cc(C)nc(N4CCOCC4)n3)CC2)c1	623 s
Cc1ccsc1C(=O)NCC(=O)N1CCCc2ccccc21	832 s
COc1ccccc1-c1nnc(SCc2cccc(C(F)(F)F)c2)o1	991 s
Cc1ccc(CNC(=O)c2cn3cccc(C)c3n2)cc1	686 s
O=C(c1ccc(F)c(Cl)c1)N1CCCC(c2nnc(-c3ccccc3)o2)C1 (centres undefined)	913 s
CCn1c(C(=O)NCc2ccc(C)cc2)cc2sc(Cl)cc21	1200 s
O=C(NCc1csc(-c2ccccc2)n1)C1CCN(S(=O)(=O)c2cccc(F)c2)CC1	912 s
O=C(CN1C(=O)CC(c2cccs2)=Nc2ccccc21)NC1CCCCC1	884 s
CC(C)Cn1cc(S(=O)(=O)N2CCN(c3ccccc3Cl)CC2)c2cccnc21	1220 s
CN1C(=O)c2cccnc2Sc2cc(NC(=O)Cc3cccc(F)c3)ccc21	784 s
O=C(C1=NN(Cc2ccccc2)c2ccccc2S1(=O)=O)N1CCCCC1	929 s
C=C[C@H]1CN2CC[C@H]1C[C@@H]2[C@@H](O)c1ccnc2ccc(OC)cc12	616 s
CC(=O)N1CCc2cc(N3CC(C(=O)NCc4ccccc4Cl)CC3=O)ccc21 (centres undefined)	708 s
N#Cc1ccsc1NC(=O)c1cccc(Oc2ccccc2)c1	988 s
COc1cccc(-n2c(=O)c(C(=O)Nc3ccccc3F)c(O)c3cccnc32)c1	1200 s
Cc1cc(CN2CCC(CNC(=O)CSc3ccc(F)cc3)CC2)c(C)o1	583 s
Cc1cc(C(=O)NCCN2CCCCCC2)c2c(=O)n(C)c(=O)n(C)c2n1	592 s
COc1cccc(CNC(=O)Cn2cccc2-c2nnc(-c3ccccc3)o2)c1	895 s
CCS(=O)(=O)N1CCC(Cc2nncn2Cc2ccccc2)C1 (centres undefined)	643 s
CC1=C(c2ccccc2)S(=O)(=O)N=C1N1CCCN(C(=O)Nc2cccc(C#N)c2)CC1	814 s
CCCNC(=O)Cn1c(=O)c2cnc(-c3ccccc3)nc2n(CC)c1=O	862 s
COc1ccc2[nH]cc(CCNC(=O)C3CCCN(c4nc5ncccc5n5cccc45)C3)c2c1 (centres undefined)	623 s
N[C@H]1CCN(O)C1=O	627 s

SMILES	RP-LC retention time
CCOCCCNC(=O)C1CCCN(c2ccc(=O)n(-c3ccc(C)c(Cl)c3)n2)C1 (centres undefined)	826 s
Cc1oc(-c2ccc(NC(=O)c3ccco3)cc2)nc1Cn1cccn1	759 s
O=C1C(NS(=O)(=O)c2ccc(C(F)(F)F)cc2)CCN1c1ccc(F)cc1 (centres undefined)	964 s
COc1ccccc1NC(=O)Cn1nc2c(Oc3cccc(Cl)c3)nccn2c1=O	900 s
Cc1ccc(-n2nc3c(N4CCCC(C(=O)NCc5ccc(F)cc5)C4)nnc(C)c3c2C)cc1 (centres undefined)	761 s
CCCOc1ccc(-c2nc(N3CCC(C)CC3)c3ccccc3n2)cc1	1010 s
O=C(c1cccs1)N1CCCC(c2nnc(-c3ccccc3)o2)C1 (centres undefined)	805 s
CCCCOC(=O)c1ccc(NC(=O)c2c(OC)cc(=O)n3c2CCCC3)cc1	857 s
Cc1cc(C)nc(Sc2ccc(S(C)(=O)=O)cc2[N+](=O)[O-])n1	750 s
CCc1nn(CC(=O)N2CCN(c3ccccn3)CC2)c(=O)c2cc3ccccc3n12	607 s
CCN1C(=O)COc2ccc(-c3csc(NC(=O)c4ccccc4Br)n3)cc21	980 s
COC(=O)CNC(=O)C1COc2ccc(NC(=O)C(C)C)cc2C1 (centres undefined)	658 s
COCCNC(=O)C1CCCCN1S(=O)(=O)c1ccc(F)cc1 (centres undefined)	769 s
CN(C)CCCOc1nn(Cc2ccccc2)c2ccccc12	750 s
O=C(NCc1cccnc1)c1nnc(-c2ccc(S(=O)(=O)N3CCCCC3)cc2)o1	669 s
O=C(NC1CCCCCC1)c1cn(-c2ccc(-c3nc(C4CC4)no3)cn2)cn1	1010 s
Cc1cc(N2CCN(C(=O)Nc3ccc(C)c(Cl)c3)CC2)nc(N2CCCC2)n1	747 s
O=C(c1ccc2c(c1)OCO2)N1CC(F)(F)C[C@H]1COc1ccncc1	615 s
CCc1nc2cc(-c3noc(-c4cnccn4)n3)ccc2o1	830 s
Cc1ccc(-c2cc3c(=O)n(Cc4noc(CN5CCOCC5)n4)ccn3n2)cc1C	777 s
